Source: US20240228446A1, “PREPARATION METHOD FOR BICYCLIC COMPOUND AND APPLICATION AS ANTIFUNGAL AGENT” (priority 2021, published 2024)
In brackets after ≈: the same amount, converted by molar mass.

Legend:
[1] = system: Aspergillus fumigatus ATCC MYA-4609; assay: Minimal inhibitory concentration (MIC) test on fungal growth (CLSI M38, Aspergillus); format: cell-based; conditions: lowest concentration inhibiting Aspergillus by 100%, 35° C., 48 hours, RPMI1640; for MIC: Aspergillus fumigatus, read-out: MIC Aspergillus fumigatus ATCC MYA-4609
Experimental: (§1) • RPMI1640 medium: Brand: Gibco, article number: 31800-014 • Sabouraud dextrose agar (SDA): Brand: Hope Bio, article number: HB0253-81 • Voriconazole: Brand: Adamas, article number: 22105A • Amphotericin B: Brand: AbCam, article number: ab141199
(§2) MIC test was conducted in accordance with the guidelines and requirements of CLSI M27 (for yeasts) and M38 (for Aspergillus).
(§3) Strain preparation: The strains were inoculated 1 day in advance by streaking on SDA plates with glycerol strains stored at −80° C. The strains were cultured at 35° C. and 40 to 60% humidity for 18 to 24 hours. Streak inoculation of Aspergillus fumigatus and Cryptococcus neoformans was required to be done 3 days and 2 days in advance, respectively.
(§4) Preparation of culture medium and compounds: The liquid culture medium RPMI was prepared with pure water, and 0.165 mol/L MOPS was added to adjust the pH to 7.0. The mixture was filtered with a 0.22 μm-membrane filter, sterilized, and stored at 4° C. (no more than 3 months). 0.85% physiological saline was sterilized at 121° C. for 30 min and then stored at room temperature (no more than 1 week). The compounds were dissolved in DMSO to 12.8 mg/mL and stored at −20° C.
For Aspergillus, 5 mL of physiological saline was added to cover the mycelium, and the spores were gently scraped off with a spreader. The spore suspension was then transferred to a sterile test tube. An appropriate amount of spore suspension was taken and counted under a microscope using a hemocytometer. Spore concentration was adjusted to approximately 0.4 to 5×10^4 spores/mL using RPMI1640 medium.
(§5) The compound was diluted to the highest 800 μg/mL (or 400 μg/mL) with DMSO, and a 10-step 2-fold gradient dilution was performed, resulting in 11 concentrations. 2 μL of the gradient-diluted compound was transferred to the corresponding wells of a 96-well plate, and then 198 μL of the inoculum was transferred to the test plate. The plate was incubated at 35° C. for 24 hours (Aspergillus fumigatus and Cryptococcus neoformans were incubated for 48 and 72 hours, respectively).
(§6) After the incubation, the growth of the fungi was visually observed. The lowest concentration of the compound that inhibited the growth of yeast by 50% (inhibited Aspergillus by 100%) was defined as the minimum inhibitory concentration (MIC, μg/mL). A magnifying glass or reading at OD530 nm could be used to assist in determining the MIC. Photos were taken of the test plates for record keeping.

[2] = system: Candida albicans ATCC MYA-2876; assay: Minimal inhibitory concentration (MIC) test on fungal growth (CLSI M27, yeasts); format: cell-based; conditions: lowest concentration inhibiting growth of yeast by 50%, 35° C., 24 hours, RPMI1640; for MIC: Candida albicans, read-out: MIC Candida albicans ATCC MYA-2876
Experimental: as §1, §2, §3, §4
For yeast, 3 to 5 colonies were selected from the SDA plate on the day of testing and fully suspended in 5 mL of sterilized 0.85% physiological saline. The turbidity of the bacterial suspension was measured with a turbidimeter, and the turbidity was adjusted to approximately 0.2. The bacterial suspension was 50-fold and 20-fold (1000-fold in total) diluted in RPMI1640 medium, respectively, to serve as the inoculum. The final inoculum concentration was 500 to 2500 CFU/mL.
as §5, §6

Row | SMILES | MIC [1] | MIC [2] | MIC Aspergillus fumigatus ATCC MYA-4609 [1] | MIC Candida albicans ATCC MYA-2876 [2]
1 | CC(C12CC(c3ccc(OC[C@H](O)C(F)(F)F)cc3)(C1)C2)C(O)(Cn1cncn1)c1ccc(F)cc1F (stereo in doubt) [Compound 125] | 1 µg/mL (≈ 1.91 µM) | ≤ 0.0039 µg/mL | – | –
2 | O[C@H](COc1ccc(C23CC(C(F)(F)C(O)(Cn4cnnn4)c4cc(F)ccc4F)(C2)C3)cc1)C(F)(F)F (stereo in doubt) [Compound 165] | 4 µg/mL (≈ 7.32 µM) | 0.03 µg/mL (≈ 0.0549 µM) | – | –
3 | O[C@@H](COc1ccc(C23CC(C(F)(F)C(O)(Cn4cnnn4)c4cc(F)ccc4F)(C2)C3)cc1)C(F)(F)F (stereo in doubt) [Compound 166] | 8 µg/mL (≈ 14.6 µM) | 0.06 µg/mL (≈ 0.11 µM) | – | –
4 | COc1ccc(C23CC(C(F)(F)[C@](O)(Cn4cnnn4)c4ccc(F)cc4F)(C2)C3)cc1 [Compound 1A] | – | – | 4 µg/mL (≈ 8.92 µM) | 0.0078 µg/mL (≈ 0.0174 µM)
5 | COc1ccc(C23CC(C(F)(F)C(O)(Cn4cnnn4)c4ccc(F)cc4F)(C2)C3)cc1 (stereo not drawn) [Compound 1] | 8 µg/mL (≈ 17.8 µM) | 0.015 µg/mL (≈ 0.0335 µM) | – | –
6 | OC(Cn1cncn1)(c1ccc(F)cc1F)C(F)(F)C12CC(c3ccc(OCC(F)(F)F)cc3)(C1)C2 (stereo not drawn) [Compound 2] | 1 µg/mL (≈ 1.94 µM) | 0.0078 µg/mL (≈ 0.0151 µM) | – | –
7 | OC(Cn1cnnn1)(c1ccc(F)cc1F)C(F)(F)C12CC(c3ccc(OCC(F)(F)F)cc3)(C1)C2 (stereo not drawn) [Compound 3] | 2 µg/mL (≈ 3.87 µM) | 0.03 µg/mL (≈ 0.0581 µM) | – | –
8 | OC(Cn1cnnn1)(c1ccc(F)cc1F)C(F)(F)C12CC(c3ccc(C(F)(F)F)nc3)(C1)C2 (stereo not drawn) [Compound 115] | – | 0.125 µg/mL (≈ 0.256 µM) | – | –
9 | CN1CCN(c2ccc(C34CC(C(F)(F)C(O)(Cn5cnnn5)c5ccc(F)cc5F)(C3)C4)cn2)CC1 (stereo not drawn) [Compound 117] | – | 0.06 µg/mL (≈ 0.116 µM) | – | –
10 | OC(Cn1cnnn1)(c1ccc(F)cc1F)C(F)(F)C12CC(C3=CCN(CC(F)(F)F)CC3)(C1)C2 (stereo not drawn) [Compound 118] | – | – | – | 0.0078 µg/mL (≈ 0.0154 µM)
11 | COc1nc(C23CC(C(F)(F)C(O)(Cn4cnnn4)c4ccc(F)cc4F)(C2)C3)cs1 (stereo not drawn) [Compound 119] | – | 0.06 µg/mL (≈ 0.132 µM) | – | –
12 | OC(Cn1cnnn1)(c1ccc(F)cc1F)C(F)(F)C12CC(c3cnn(CC(F)(F)F)c3)(C1)C2 (stereo not drawn) [Compound 120] | – | – | – | 0.125 µg/mL (≈ 0.255 µM)
13 | OC(Cn1cnnn1)(c1ccc(F)cc1F)C(F)(F)C12CC(c3ccc(OCC4(F)COC4)nc3)(C1)C2 (stereo not drawn) [Compound 122] | – | 0.016 µg/mL (≈ 0.0306 µM) | – | –
14 | OC(Cn1ccnc1)(c1ccc(F)cc1F)C(F)(F)C12CC(c3ccc(OCC(F)(F)F)cc3)(C1)C2 (stereo not drawn) [Compound 124] | – | 0.0078 µg/mL (≈ 0.0152 µM) | – | –
15 | CC(C12CC(c3ccc(C#N)cc3)(C1)C2)C(O)(Cn1cncn1)c1ccc(F)cc1F (stereo not drawn) [Compound 126] | – | 0.016 µg/mL (≈ 0.0381 µM) | – | –
16 | OC12CC(C(F)(F)C(O)(Cn3cncn3)c3ccc(F)cc3F)(C1)C2 (stereo not drawn) [Compound 133] | – | 3 µg/mL (≈ 8.4 µM) | – | –
17 | CCS(=O)(=O)C[C@@H](O)COc1ccc(C23CC(C(F)(F)C(O)(Cn4cnnn4)c4ccc(F)cc4F)(C2)C3)cc1 (stereo partly drawn) [Compound 139] | – | 0.06 µg/mL (≈ 0.103 µM) | – | –
18 | CS(=O)(=O)CC(O)COc1ccc(C23CC(C(F)(F)C(O)(Cn4cnnn4)c4ccc(F)cc4F)(C2)C3)cc1 (stereo not drawn) [Compound 141] | – | 0.06 µg/mL (≈ 0.105 µM) | – | –
19 | OC(COc1ccc(C23CC(C(F)(F)C(O)(Cn4cnnn4)c4ccc(F)cc4F)(C2)C3)cc1)C1(O)COC1 (stereo not drawn) [Compound 146] | – | 0.06 µg/mL (≈ 0.109 µM) | – | –
20 | OC1(COc2ccc(C34CC(C(F)(F)C(O)(Cn5cnnn5)c5ccc(F)cc5F)(C3)C4)cc2)CC1 (stereo not drawn) [Compound 147] | – | 0.016 µg/mL (≈ 0.0317 µM) | – | –
21 | N#CC1(COc2ccc(C34CC(C(F)(F)C(O)(Cn5cnnn5)c5ccc(F)cc5F)(C3)C4)cc2)CC1 (stereo not drawn) [Compound 148] | – | 0.016 µg/mL (≈ 0.0312 µM) | – | –
22 | OC1(COc2ccc(C34CC(C(F)(F)C(O)(Cn5cnnn5)c5ccc(F)cc5F)(C3)C4)cc2)COC1 (stereo not drawn) [Compound 150] | – | 0.03 µg/mL (≈ 0.0576 µM) | – | –
23 | OC(COc1ccc(C23CC(C(F)(F)C(O)(Cn4cnnn4)c4ccc(F)cc4F)(C2)C3)cc1)C1COC1 (stereo not drawn) [Compound 152] | – | 0.0078 µg/mL (≈ 0.0146 µM) | – | –
24 | OC(Cn1cnnn1)(c1ccc(F)cc1F)C(F)(F)C12CC(c3ccc(COC(F)F)cc3)(C1)C2 (stereo not drawn) [Compound 159] | – | 0.0078 µg/mL (≈ 0.0156 µM) | – | –
25 | OC(Cn1cnnn1)(c1ccc(F)cc1F)C(F)(F)C12CC(c3ccc(COCC(F)(F)F)cc3)(C1)C2 (stereo not drawn) [Compound 160] | – | 0.016 µg/mL (≈ 0.0302 µM) | – | –
26 | OC(Cn1cnnn1)(c1ccc(F)cc1F)C(F)(F)C12CC(c3ccc(CNCC(F)(F)F)cc3)(C1)C2 (stereo not drawn) [Compound 161] | – | 0.016 µg/mL (≈ 0.0302 µM) | – | –
27 | CN1CCN(c2ccc(C34CC(C(F)(F)C(O)(Cn5cnnn5)c5ccc(F)cc5F)(C3)C4)cc2)CC1 (stereo not drawn) [Compound 162] | – | 0.03 µg/mL (≈ 0.0581 µM) | – | –
28 | O=S1(=O)CCC(c2ccc(C34CC(C(F)(F)C(O)(Cn5cnnn5)c5ccc(F)cc5F)(C3)C4)cc2)CC1 (stereo not drawn) [Compound 163] | – | 0.0078 µg/mL (≈ 0.0142 µM) | – | –

The remaining lines, values ahead:

Row | MIC [1] | MIC [2] | MIC Aspergillus fumigatus ATCC MYA-4609 [1] | MIC Candida albicans ATCC MYA-2876 [2] | SMILES
29 | 0.5 µg/mL (≈ 0.955 µM) | ≤ 0.0039 µg/mL | – | – | C[C@H](C12CC(c3ccc(OC[C@H](O)C(F)(F)F)cc3)(C1)C2)[C@](O)(Cn1cncn1)c1ccc(F)cc1F (relative stereo) [Compound 125A]
30 | 0.5 µg/mL (≈ 0.917 µM) | ≤ 0.0039 µg/mL | – | – | O[C@H](COc1ccc(C23CC(C(F)(F)[C@](O)(Cn4cncn4)c4ccc(F)cc4F)(C2)C3)cc1)C(F)(F)F (relative stereo) [Compound 132A]
31 | 4 µg/mL (≈ 7.14 µM) | ≤ 0.0039 µg/mL | – | – | O[C@H](COc1ccc(C23CC(C(F)(F)[C@](O)(Cn4cnnn4)c4ccc(F)cc4F)(C2)C3)cc1)CC(F)(F)F (relative stereo) [Compound 142A]
32 | 4 µg/mL (≈ 7.14 µM) | ≤ 0.0039 µg/mL | – | – | O[C@@H](COc1ccc(C23CC(C(F)(F)[C@](O)(Cn4cnnn4)c4ccc(F)cc4F)(C2)C3)cc1)CC(F)(F)F (relative stereo) [Compound 142B]
33 | 2 µg/mL (≈ 3.86 µM) | ≤ 0.0039 µg/mL | – | – | O[C@H](COc1ccc(C23CC(C(F)(F)[C@](O)(Cn4cnnn4)c4ccc(F)cc4F)(C2)C3)cc1)C1CC1 (relative stereo) [Compound 144A]
34 | 4 µg/mL (≈ 7.71 µM) | ≤ 0.0039 µg/mL | – | – | O[C@@H](COc1ccc(C23CC(C(F)(F)[C@](O)(Cn4cnnn4)c4ccc(F)cc4F)(C2)C3)cc1)C1CC1 (relative stereo) [Compound 144B]
35 | 1 µg/mL (≈ 1.94 µM) | ≤ 0.0039 µg/mL | – | – | O[C@@](Cn1cncn1)(c1ccc(F)cc1F)C(F)(F)C12CC(c3ccc(OCC(F)(F)F)cc3)(C1)C2 (stereo in doubt) [Compound 2A]
36 | 4 µg/mL (≈ 7.6 µM) | ≤ 0.0039 µg/mL | – | – | CS(=O)(=O)COc1ccc(C23CC(C(F)(F)[C@](O)(Cn4cnnn4)c4ccc(F)cc4F)(C2)C3)cc1 (stereo in doubt) [Compound 131A]
37 | 2 µg/mL (≈ 4.01 µM) | ≤ 0.0039 µg/mL | – | – | O[C@@](Cn1cnnn1)(c1ccc(F)cc1F)C(F)(F)C12CC(c3ccc(COC(F)F)cc3)(C1)C2 (stereo in doubt) [Compound 159A]
38 | 1 µg/mL (≈ 1.94 µM) | ≤ 0.0039 µg/mL | – | – | O[C@@](Cn1cnnn1)(c1ccc(F)cc1F)C(F)(F)C12CC(c3ccc(OCC(F)(F)F)cc3)(C1)C2 [Compound 3A]
39 | 1 µg/mL (≈ 1.88 µM) | 2 µg/mL (≈ 3.75 µM) | – | – | O[C@](Cn1cnnn1)(c1ccc(Cl)cc1F)C(F)(F)C12CC(c3ccc(OCC(F)(F)F)cc3)(C1)C2 [Compound 7B]
40 | 1 µg/mL (≈ 2.93 µM) | ≤ 0.0039 µg/mL | – | – | O[C@@](Cn1cncn1)(c1ccc(F)cc1F)C(F)(F)C12CC(C1)C2 [Compound 10A]
41 | – | 0.06 µg/mL (≈ 0.11 µM) | – | – | O[C@@H](COc1ccc(C23CC(C(F)(F)[C@](O)(Cn4cnnn4)c4cc(F)ccc4F)(C2)C3)cc1)C(F)(F)F [Compound 166A]
